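48-hour exposure; five concentrations; linearly interpolated endpoints. TGI: total growth inhibition.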
Key:
Test in all cases: NCI tumour cell line growth inhibition, 48 h
U251 CNS = tested on: U251 CNS
ACHN renal = tested on: ACHN renal
SK-MEL-5 melanoma = tested on: SK-MEL-5 melanoma
SF-539 CNS = tested on: SF-539 CNS
SK-MEL-28 melanoma = tested on: SK-MEL-28 melanoma
UO-31 renal = tested on: UO-31 renal
A549 NSCLC = tested on: A549 NSCLC
SR leukemia = tested on: SR leukemia
LOX IMVI melanoma = tested on: LOX IMVI melanoma
KM12 colon = tested on: KM12 colon
PC-3 prostate = tested on: PC-3 prostate
SN12C renal = tested on: SN12C renal
MOLT-4 leukemia = tested on: MOLT-4 leukemia
MDA-N = tested on: MDA-N
HCC-2998 colon = tested on: HCC-2998 colon
IGROV1 ovarian = tested on: IGROV1 ovarian
NCI-H460 lung = tested on: NCI-H460 lung
HT29 colon = tested on: HT29 colon
SF-295 CNS = tested on: SF-295 CNS
HOP-62 NSCLC = tested on: HOP-62 NSCLC
EKVX NSCLC = tested on: EKVX NSCLC
NCI-H23 lung = tested on: NCI-H23 lung
RXF 393 renal = tested on: RXF 393 renal
OVCAR-3 ovarian = tested on: OVCAR-3 ovarian
786-0 renal = tested on: 786-0 renal
HCT-116 colon = tested on: HCT-116 colon
NCI-H226 lung = tested on: NCI-H226 lung
OVCAR-8 ovarian = tested on: OVCAR-8 ovarian
SNB-19 CNS = tested on: SNB-19 CNS
MDA-MB-435 = tested on: MDA-MB-435
MALME-3M melanoma = tested on: MALME-3M melanoma
SNB-75 CNS = tested on: SNB-75 CNS
TK-10 renal = tested on: TK-10 renal
HS 578T breast = tested on: HS 578T breast
HCT-15 colon = tested on: HCT-15 colon
MDA-MB-231 breast = tested on: MDA-MB-231 breast
SW-620 colon = tested on: SW-620 colon
DU-145 prostate = tested on: DU-145 prostate
SF-268 CNS = tested on: SF-268 CNS
BT-549 breast = tested on: BT-549 breast
OVCAR-5 ovarian = tested on: OVCAR-5 ovarian
COLO 205 colon = tested on: COLO 205 colon
CCRF-CEM leukemia = tested on: CCRF-CEM leukemia
T-47D breast = tested on: T-47D breast
UACC-62 melanoma = tested on: UACC-62 melanoma
CAKI-1 renal = tested on: CAKI-1 renal
NCI-H522 lung = tested on: NCI-H522 lung
UACC-257 melanoma = tested on: UACC-257 melanoma
HL-60(TB) leukemia = tested on: HL-60(TB) leukemia
K-562 leukemia = tested on: K-562 leukemia
MCF7 breast = tested on: MCF7 breast
NCI/ADR-RES ovarian = tested on: NCI/ADR-RES ovarian
RPMI-8226 leukemia = tested on: RPMI-8226 leukemia
SK-OV-3 ovarian = tested on: SK-OV-3 ovarian
A498 renal = tested on: A498 renal
HOP-92 NSCLC = tested on: HOP-92 NSCLC
SK-MEL-2 melanoma = tested on: SK-MEL-2 melanoma
OVCAR-4 ovarian = tested on: OVCAR-4 ovarian

Cc1nc2ccc(C(F)(F)F)cc2nc1NCc1ccc(Cl)c(Cl)c1
TGI (U251 CNS): 30.6 µM | TGI (ACHN renal): 28 µM | TGI (SK-MEL-5 melanoma): 33.8 µM | TGI (SF-539 CNS): 33.7 µM | TGI (SK-MEL-28 melanoma): 33.9 µM | TGI (UO-31 renal): 29.9 µM | TGI (A549 NSCLC): 30.6 µM | TGI (SR leukemia): 32.7 µM | TGI (LOX IMVI melanoma): 29.6 µM | TGI (KM12 colon): 30.1 µM | TGI (PC-3 prostate): 25.6 µM | TGI (SN12C renal): 35.3 µM | TGI (MOLT-4 leukemia): 35.8 µM | TGI (MDA-N): 32 µM | TGI (HCC-2998 colon): 22.3 µM | TGI (IGROV1 ovarian): 31.3 µM | TGI (NCI-H460 lung): > 100 µM | TGI (HT29 colon): 28.2 µM | TGI (SF-295 CNS): 32.2 µM | TGI (HOP-62 NSCLC): 27.5 µM | TGI (EKVX NSCLC): 27.4 µM | TGI (NCI-H23 lung): 30.9 µM | TGI (RXF 393 renal): 26.5 µM | TGI (OVCAR-3 ovarian): 26.3 µM | TGI (786-0 renal): 30.3 µM | TGI (HCT-116 colon): 32 µM | TGI (NCI-H226 lung): 37.9 µM | TGI (OVCAR-8 ovarian): 33.2 µM | TGI (SNB-19 CNS): 36.6 µM | TGI (MDA-MB-435): 31.8 µM | TGI (MALME-3M melanoma): 32 µM | TGI (SNB-75 CNS): 26.9 µM | TGI (TK-10 renal): 21.2 µM | TGI (HS 578T breast): 45.5 µM | TGI (HCT-15 colon): 25.3 µM | TGI (MDA-MB-231 breast): 29.4 µM | TGI (SW-620 colon): 34.7 µM | TGI (DU-145 prostate): 31.8 µM | TGI (SF-268 CNS): 34 µM | TGI (BT-549 breast): 39.7 µM | TGI (OVCAR-5 ovarian): 25.9 µM | TGI (COLO 205 colon): 30.6 µM | TGI (CCRF-CEM leukemia): 36.6 µM | TGI (T-47D breast): 9 µM | TGI (UACC-62 melanoma): 18.5 µM | TGI (CAKI-1 renal): 33.8 µM | TGI (NCI-H522 lung): 28.8 µM | TGI (UACC-257 melanoma): 30.1 µM | TGI (HL-60(TB) leukemia): 34.7 µM | TGI (K-562 leukemia): 42.2 µM | TGI (MCF7 breast): 22.6 µM | TGI (NCI/ADR-RES ovarian): 47.6 µM | TGI (RPMI-8226 leukemia): 38.9 µM

CCOC(=O)/C=C/CCO[Si](C)(C)C(C)(C)C
TGI (U251 CNS): > 100 µM | TGI (ACHN renal): > 100 µM | TGI (SK-MEL-5 melanoma): > 100 µM | TGI (SF-539 CNS): > 100 µM | TGI (SK-MEL-28 melanoma): > 100 µM | TGI (UO-31 renal): > 100 µM | TGI (A549 NSCLC): > 100 µM | TGI (SR leukemia): > 100 µM | TGI (LOX IMVI melanoma): > 100 µM | TGI (KM12 colon): > 100 µM | TGI (PC-3 prostate): > 100 µM | TGI (SN12C renal): > 100 µM | TGI (MOLT-4 leukemia): > 100 µM | TGI (MDA-N): > 100 µM | TGI (HCC-2998 colon): > 100 µM | TGI (IGROV1 ovarian): > 100 µM | TGI (NCI-H460 lung): > 100 µM | TGI (HT29 colon): > 100 µM | TGI (SF-295 CNS): > 100 µM | TGI (HOP-62 NSCLC): > 100 µM | TGI (EKVX NSCLC): > 100 µM | TGI (NCI-H23 lung): > 100 µM | TGI (RXF 393 renal): > 100 µM | TGI (OVCAR-3 ovarian): > 100 µM | TGI (786-0 renal): > 100 µM | TGI (HCT-116 colon): > 100 µM | TGI (NCI-H226 lung): > 100 µM | TGI (OVCAR-8 ovarian): > 100 µM | TGI (SK-OV-3 ovarian): > 100 µM | TGI (SNB-19 CNS): > 100 µM | TGI (MDA-MB-435): > 100 µM | TGI (MALME-3M melanoma): > 100 µM | TGI (SNB-75 CNS): > 100 µM | TGI (TK-10 renal): > 100 µM | TGI (HS 578T breast): > 100 µM | TGI (HCT-15 colon): > 100 µM | TGI (MDA-MB-231 breast): > 100 µM | TGI (SW-620 colon): > 100 µM | TGI (DU-145 prostate): > 100 µM | TGI (SF-268 CNS): > 100 µM | TGI (A498 renal): > 100 µM | TGI (BT-549 breast): > 100 µM | TGI (OVCAR-5 ovarian): > 100 µM | TGI (COLO 205 colon): > 100 µM | TGI (CCRF-CEM leukemia): > 100 µM | TGI (T-47D breast): > 100 µM | TGI (UACC-62 melanoma): > 100 µM | TGI (CAKI-1 renal): > 100 µM | TGI (NCI-H522 lung): > 100 µM | TGI (UACC-257 melanoma): > 100 µM | TGI (HOP-92 NSCLC): > 100 µM | TGI (SK-MEL-2 melanoma): > 100 µM | TGI (K-562 leukemia): > 100 µM | TGI (OVCAR-4 ovarian): > 100 µM | TGI (MCF7 breast): > 100 µM | TGI (NCI/ADR-RES ovarian): > 100 µM | TGI (RPMI-8226 leukemia): > 100 µM
